In patent US20230141198A1, “PYRAZOL[…]” (THE KITASATO INSTITUTE, priority 2019, published 2023):

Assays:
Type in all cases: cell-based
[1] = biological target: T1, hERG channel (Homo sapiens, UniProt Q12809); assay: hERG potassium channel inhibition test (auto patch clamp); settings: hERG channel stably expressing CHO cells, perfused at room temperature for 5 minutes
T1 construct: host or cells: CHO cells
Experimental: Ether-a-Go-Go Related Gene (hERG) Potassium Channel Inhibition Test
A test was performed using hERG channel stably expressing CHO cells (purchased from Channelopathy Foundation) with a Port-a-Patch auto patch clamping device (Nanion Technologies). A membrane potential of the cells was held at −80 mV, and then a test pulse of −50 mV for 1.5 seconds was applied at a frequency of once every 10 seconds following a depolarization pulse of +20 mV for 1.5 seconds. An hERG current was confirmed by a tail current induced by the test pulse. A test compound was dissolved in an extracellular solution ([…] NaCl, 4 mM KCl, 1.82 mM CaCl2, 1 mM MgCl2, 105 mM D(+)-glucose, 10 mM HEPES, pH 7.4) and perfused at room temperature for 5 minutes. An inhibition ratio was determined from a ratio of a tail current value after application of the compound when a maximum tail current value before application of the compound was taken as 100%. For the test, cells having a peak current value of the tail current of 300 pA or more, tail current run-down of less than 10% of a current initial value, and a leak current of less than 200 pA were used.

[2] = biological target: T2, human opioid δ receptor (Homo sapiens, UniProt P41143); assay: Opioid receptor function test (agonist activity, Lance Ultra cAMP kit), δ receptor; settings: for Emax: maximum reaction relative to control drug SNC 80 taken as 100%
T2 construct: host or cells: CHO cells
T2 sequence (P41143 whole entry): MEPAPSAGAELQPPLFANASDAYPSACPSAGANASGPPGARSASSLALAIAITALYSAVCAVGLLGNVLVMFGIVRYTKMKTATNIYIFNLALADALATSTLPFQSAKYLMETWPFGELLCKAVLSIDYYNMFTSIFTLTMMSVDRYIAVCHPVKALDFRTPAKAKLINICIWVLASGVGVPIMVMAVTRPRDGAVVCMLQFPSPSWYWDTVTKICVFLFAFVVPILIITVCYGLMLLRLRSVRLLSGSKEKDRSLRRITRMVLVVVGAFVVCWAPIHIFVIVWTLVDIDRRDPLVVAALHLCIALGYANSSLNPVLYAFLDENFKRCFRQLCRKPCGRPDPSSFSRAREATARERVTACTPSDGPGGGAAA
From the text: (§1) Opioid Receptor Function Test
(§2) Functional activity of the compound provided by the present invention on μ, δ, and κ opioid receptors was examined.
(§3) Method: Using a Lance Ultra cAMP kit (Perkin Elmer), the functional activity was examined by a predetermined method. In evaluation of agonist activity, CHO cells expressing each of human opioid receptors (δ, μ, and κ: accession numbers and catalog numbers are described below) were reacted with a test compound in an assay buffer (1× HBSS, […], pH 7.4, […] isobutylmethylxanthine (IBMX), 7.5% BSA) in the presence of 10 μM forskolin for 30 minutes. Subsequently, a cAMP detection reagent in the kit was added. One hour later, time-resolved fluorescence measurement was performed using an EnVision plate reader (Perkin Elmer). The test compound and each control drug (δ: SNC 80, μ: DAMGO, κ: U-69593) were evaluated in a concentration range of 10^−12 to 10^−5 M. A dose reaction curve of the test compound was determined from a fluorescence value at 665 nm, and an EC50 value and an Emax value were calculated. The Emax value was determined as a ratio of a maximum reaction of the test compound when a maximum reaction of each control drug was taken as 100%.

[3] = biological target: T3, human opioid κ receptor (Homo sapiens, UniProt P41145); assay: Opioid receptor function test (agonist activity, Lance Ultra cAMP kit), κ receptor; settings: for Emax: maximum reaction relative to control drug U-69593 taken as 100%
T3 construct: host or cells: CHO cells
T3 sequence (P41145 whole entry): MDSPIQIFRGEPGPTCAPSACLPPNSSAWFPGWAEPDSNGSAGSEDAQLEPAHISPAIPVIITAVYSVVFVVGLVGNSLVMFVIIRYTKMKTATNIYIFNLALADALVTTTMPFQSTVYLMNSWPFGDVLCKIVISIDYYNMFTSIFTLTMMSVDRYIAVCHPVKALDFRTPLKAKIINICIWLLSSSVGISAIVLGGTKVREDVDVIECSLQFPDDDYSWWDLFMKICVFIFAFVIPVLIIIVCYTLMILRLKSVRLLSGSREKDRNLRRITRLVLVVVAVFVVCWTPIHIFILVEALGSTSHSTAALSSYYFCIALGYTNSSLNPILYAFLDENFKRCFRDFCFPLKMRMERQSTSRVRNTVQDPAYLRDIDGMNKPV
From the text: as §1, §2, §3

[4] = biological target: T4, human opioid μ receptor (Homo sapiens, UniProt P35372); assay: Opioid receptor function test (agonist activity, Lance Ultra cAMP kit), μ receptor; settings: for Emax: maximum reaction relative to control drug DAMGO taken as 100%
T4 construct: host or cells: CHO cells
T4 sequence (P35372 whole entry): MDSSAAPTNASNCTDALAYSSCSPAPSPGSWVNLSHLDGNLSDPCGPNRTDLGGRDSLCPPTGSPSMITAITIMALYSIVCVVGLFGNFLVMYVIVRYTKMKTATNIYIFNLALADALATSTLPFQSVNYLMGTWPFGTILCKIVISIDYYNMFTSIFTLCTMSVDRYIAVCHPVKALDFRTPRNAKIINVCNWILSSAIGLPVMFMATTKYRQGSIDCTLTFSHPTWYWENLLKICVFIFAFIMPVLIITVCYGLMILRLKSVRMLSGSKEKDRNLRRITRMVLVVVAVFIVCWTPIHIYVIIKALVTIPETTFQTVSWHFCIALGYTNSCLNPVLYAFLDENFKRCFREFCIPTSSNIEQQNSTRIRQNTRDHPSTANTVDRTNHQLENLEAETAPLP
From the text: as §1, §2, §3

T1 sequence (Q12809 whole entry, the tested form may be a part): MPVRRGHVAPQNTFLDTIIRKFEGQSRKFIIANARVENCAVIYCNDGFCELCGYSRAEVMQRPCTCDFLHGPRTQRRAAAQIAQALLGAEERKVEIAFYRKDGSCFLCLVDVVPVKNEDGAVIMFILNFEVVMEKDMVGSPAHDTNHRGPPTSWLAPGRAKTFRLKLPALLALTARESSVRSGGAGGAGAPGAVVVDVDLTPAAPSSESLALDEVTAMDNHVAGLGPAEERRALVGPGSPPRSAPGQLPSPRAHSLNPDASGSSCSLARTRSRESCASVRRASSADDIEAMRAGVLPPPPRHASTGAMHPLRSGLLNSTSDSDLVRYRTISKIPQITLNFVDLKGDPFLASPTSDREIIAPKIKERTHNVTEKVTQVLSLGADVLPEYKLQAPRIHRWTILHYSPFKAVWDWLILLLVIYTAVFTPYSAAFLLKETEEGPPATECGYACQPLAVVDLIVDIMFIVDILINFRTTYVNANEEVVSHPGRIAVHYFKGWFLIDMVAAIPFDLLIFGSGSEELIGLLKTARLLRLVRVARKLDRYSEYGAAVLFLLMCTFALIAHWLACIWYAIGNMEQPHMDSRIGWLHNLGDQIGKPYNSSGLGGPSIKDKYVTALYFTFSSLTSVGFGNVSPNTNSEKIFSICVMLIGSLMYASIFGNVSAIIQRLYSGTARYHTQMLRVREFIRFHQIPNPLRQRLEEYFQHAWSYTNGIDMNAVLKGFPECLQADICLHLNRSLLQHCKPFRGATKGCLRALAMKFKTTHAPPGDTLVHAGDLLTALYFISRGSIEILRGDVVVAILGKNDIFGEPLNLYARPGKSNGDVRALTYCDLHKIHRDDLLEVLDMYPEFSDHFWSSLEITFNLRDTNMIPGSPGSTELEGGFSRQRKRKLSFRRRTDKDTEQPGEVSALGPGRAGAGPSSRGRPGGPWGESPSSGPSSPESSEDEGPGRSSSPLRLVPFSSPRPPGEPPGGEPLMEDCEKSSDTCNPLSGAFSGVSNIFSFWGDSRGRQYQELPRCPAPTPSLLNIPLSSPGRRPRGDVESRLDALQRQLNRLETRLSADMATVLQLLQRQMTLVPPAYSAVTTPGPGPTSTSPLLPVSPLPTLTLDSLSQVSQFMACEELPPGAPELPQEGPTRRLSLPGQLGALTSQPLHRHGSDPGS

Row | SMILES | hERG inhibitory effect (tail current inhibition) [1] | EC50 [2] | Emax [2] | EC50 [3] | Emax [3] | EC50 [4] | Emax [4]
1 | Cc1nn(C(C)C)c2c1C[C@@]1(O)[C@H]3Cc4ccc(O)cc4[C@@]1(CCN3CC1CC1)C2 [Compound 23, (6R,6aS,11aR)-14-(cyclopropylmethyl)-10-isopropyl-8-methyl-5,6,10,11-tetrahydro-6,11a-(epiminoethano)naphtho[2,1-f]indazole-2,6a(7H)-diol] | only weak inhibitory effect | 0.48 nM | 95% |  |  |  | 
2 | Cc1c2c(nn1C(C)(C)C)C[C@]13CCN(CC4CC4)[C@H](Cc4ccc(O)cc41)[C@]3(O)C2 [Compound 24, (6R,6aS,11aR)-9-(tert-butyl)-14-(cyclopropylmethyl)-8-methyl-5,6,9,11-tetrahydro-6,11a-(epiminoethano)naphtho[2,1-f]indazole-2,6a(7H)-diol] | only weak inhibitory effect | 0.14 nM | 108% | 17 nM | 23% |  | 
3 | Cc1c2c(nn1C(C)C)C[C@]13CCN(CC4CC4)[C@H](Cc4ccc(O)cc41)[C@]3(O)C2 [Compound 22, (6R,6aS,11aR)-14-(cyclopropylmethyl)-9-isopropyl methyl-5,6,9,11-tetrahydro-6,11a-(epiminoethano)naphtho[2,1-f]indazole-2,6a(7H)-diol] | only weak inhibitory effect | 0.18 nM | 107% | 13 nM | 35% | 15 nM | 15%
4 | Cc1c2c(nn1-c1ccccc1)C[C@]13CCN(CC4CC4)[C@H](Cc4ccc(O)cc41)[C@]3(O)C2 [Compound 20, (6R,6aS,11aR)-14-(cyclopropylmethyl)-8-methyl-9-phenyl-5,6,9,11-tetrahydro-6,11a-(epiminoethano)naphtho[2,1-f]indazole-2,6a(7H)-diol] |  | 0.89 nM | 86% | 8.7 nM | 12% | 8.1 nM | 10%
5 | Cc1nn(CCO)c2c1C[C@@]1(O)[C@H]3Cc4ccc(O)cc4[C@@]1(CCN3CC1CC1)C2 [Compound 44, (6R,6aS,11aR)-14-(cyclopropylmethyl)-10-(2-hydroxyethyl)-8-methyl-5,6,10,11-tetrahydro-6,11a-(epiminoethano)naphtho[2,1-f]indazole-2,6a(7H)-diol] | only weak inhibitory effect |  |  |  |  |  | 
6 | Cc1c2c(nn1C1CCC1)C[C@]13CCN(CC4CC4)[C@H](Cc4ccc(O)cc41)[C@]3(O)C2 [Compound 85, (6R,6aS,11aR)-9-cyclobutyl-14-(cyclopropylmethyl) methyl-5,6,9,11-tetrahydro-6,11a-(epiminoethano)naphtho[2,1-f]indazole-2,6a(7H)-diol] |  | 0.092 nM | 104% | 17 nM | 25% | 16 nM | 26%
7 | Cc1c2c(nn1C1CC1)C[C@]13CCN(CC4CC4)[C@H](Cc4ccc(O)cc41)[C@]3(O)C2 [Compound 83, (6R,6aS,11aR)-9-cyclopropyl-14-(cyclopropylmethyl)-8-methyl-5,6,9,11-tetrahydro-6,11a-(epiminoethano)naphtho[2,1-f]indazole-2,6a(7H)-diol] |  | 0.13 nM | 99% | 50 nM | 30% | 11 nM | 16%
8 | Cc1c2c(nn1C1CCN(C)CC1)C[C@]13CCN(CC4CC4)[C@H](Cc4ccc(O)cc41)[C@]3(O)C2 [Compound 92, (6R,6aS,11aR)-14-(cyclopropylmethyl)-8-methyl-9-(1-methylpiperidin-4-yl)-5,6,9,11-tetrahydro-6,11a-(epiminoethano)naphtho[2,1-f]indazole-2,6a(7H)-diol] |  | 0.51 nM | 103% | 16 nM | 20% | 52 nM | 17%
9 | Cc1nn(C2CCN(C)CC2)c2c1C[C@@]1(O)[C@H]3Cc4ccc(O)cc4[C@@]1(CCN3CC1CC1)C2 [Compound 91, (6R,6aS,11aR)-14-(cyclopropylmethyl)-8-methyl-10-(1-methylpiperidin-4-yl)-5,6,10,11-tetrahydro-6,11a-(epiminoethano)naphtho[2,1-f]indazole-2,6a(7H)-diol] |  | 0.23 nM | 112% | 15 nM | 25% | 32 nM | 12%
10 | Cc1nn(-c2ccccc2)c2c1C[C@@]1(O)[C@H]3Cc4ccc(O)cc4[C@@]1(CCN3C)C2 [Compound 61, (6R,6aS,11aR)-8,14-dimethyl-10-phenyl-5,6,10,11-tetrahydro-6,11a-(epiminoethano)naphtho[2,1-f]indazole-2,6a(7H)-diol] |  | 15 nM | 91% | 1030 nM | 14% | 257 nM | 63%
11 | Cc1c2c(nn1C1CCCC1)C[C@]13CCN(CC4CC4)[C@H](Cc4ccc(O)cc41)[C@]3(O)C2 [Compound 87, (6R,6aS,11aR)-9-cyclopentyl-14-(cyclopropylmethyl)-8-methyl-5,6,9,11-tetrahydro-6,11a-(epiminoethano)naphtho[2,1-f]indazole-2,6a(7H)-diol] |  | 0.11 nM | 106% | 59 nM | 30% | 28 nM | 24%
